Measurements taken from patent publication US20230381156A1, “TREATMENT OF BREAST CANCER USING COMBINATION THERAPIES COMPRISING GDC-9545 AND IPATASERTIB” (Genentech, Inc., priority 2021, published 2023).
Values belong to the molecule of their own block, whether it stands above or below them.

Legend:
[1] = test system: ER+ breast cancer models of ESR1-wild type and ESR1-mutation-bearing disease; assay: Xenograft models / ER+ breast cancer models
frontline patients = details: NCT01602380; cited from earlier work
[2] = Plasma protein binding / free concentration versus fulvestrant; type: in vitro ADME
ER = target: T1, ER (Homo sapiens, UniProt P03372); assay: Competition with estrogens for binding to the ER
T1 sequence (P03372 1-595): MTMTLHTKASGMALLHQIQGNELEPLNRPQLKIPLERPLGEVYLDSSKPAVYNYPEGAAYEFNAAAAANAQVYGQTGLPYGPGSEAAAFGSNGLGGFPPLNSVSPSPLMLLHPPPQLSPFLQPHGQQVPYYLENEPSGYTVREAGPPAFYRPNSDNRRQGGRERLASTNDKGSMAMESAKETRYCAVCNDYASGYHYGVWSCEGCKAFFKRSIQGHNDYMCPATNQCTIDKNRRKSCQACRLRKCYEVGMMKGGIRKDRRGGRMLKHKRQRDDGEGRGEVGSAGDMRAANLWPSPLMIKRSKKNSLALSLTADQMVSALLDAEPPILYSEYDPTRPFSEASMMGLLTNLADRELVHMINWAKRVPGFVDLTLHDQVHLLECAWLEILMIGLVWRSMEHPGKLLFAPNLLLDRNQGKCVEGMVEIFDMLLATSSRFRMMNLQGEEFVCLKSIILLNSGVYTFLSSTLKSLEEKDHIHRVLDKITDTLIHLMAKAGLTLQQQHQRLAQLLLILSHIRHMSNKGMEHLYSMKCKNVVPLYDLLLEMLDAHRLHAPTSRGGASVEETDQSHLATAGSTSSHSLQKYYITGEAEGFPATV

[3] = Human steady-state total drug exposure versus fulvestrant; type: in vivo; details: GDC-9545 30 mg QD versus fulvestrant 500 mg IM monthly
[4] = test system: ER (wild-type and ESR1-mutant contexts); assay: In vitro cell and biochemical assays, potency versus fulvestrant
[5] = test system: CDK4/6i-resistant breast cancer cell line; details: Iida et al. 2020; cited from earlier work

Structure (SMILES): C[C@]12CC[C@@H]3c4ccc(O)cc4C[C@@H](CCCCCCCCC[S+]([O-])CCCC(F)(F)C(F)(F)F)[C@H]3[C@@H]1CC[C@@H]2O (stereo partly shown) [Fulvestrant, reference compound]
efficacy in xenograft models compared with GDC-9545 ([1]; fulvestrant dosed according to a clinically relevant dosing scheme): less efficacious than GDC-9545
clinical benefit versus anastrozole (frontline patients): benefit over anastrozole

free concentration compared with fulvestrant [2]: higher
plasma protein binding compared with fulvestrant [2]: lower
potency of competition with estrogens for binding to the ER (ER): low nanomolar potency
human steady-state total drug exposure relative to fulvestrant [3]: approximately 10 fold
Structure (SMILES): C[C@@H]1Cc2c([nH]c3ccccc23)[C@@H](c2c(F)cc(NC3CN(CCCF)C3)cc2F)N1CC(F)(F)CO [GDC-9545, 3-((1R,3R)-1-(2,6-difluoro-4-((1-(3-fluoropropyl)azetidin-3-yl)amino)phenyl)-3-methyl-1,3,4,9-tetrahydro-2H-pyrido[3,4-b]indol-2-yl)-2,2-difluoropropan-1-ol]
nonclinical activity in ER+ breast cancer models ([1]; ESR1-wild type and ESR1-mutation-bearing disease): robust nonclinical activity
potency relative to fulvestrant [4]: up to 10 times

Structure (SMILES): Cc1nc(NC(=O)N2CCC[C@H]2C(N)=O)sc1-c1ccnc(C(C)(C)C(F)(F)F)c1 [alpelisib]
response of resistant cells in cell growth analysis [5]: remain responsive

Structure (SMILES): CO[C@H]1C[C@@H]2CC[C@@H](C)[C@@](O)(O2)C(=O)C(=O)N2CCCC[C@H]2C(=O)O[C@H]([C@H](C)C[C@@H]2CC[C@@H](OCCO)[C@H](OC)C2)CC(=O)[C@H](C)/C=C(\C)[C@@H](O)[C@@H](OC)C(=O)[C@H](C)C[C@H](C)/C=C/C=C/C=C/1C [everolimus]
response of resistant cells in cell growth analysis [5]: remain responsive
